This is an account of results in PMC11602115 (Journal of Medicinal Chemistry, 2017).

As a reminder, the AUC(0-inf) is total exposure, with the tail of the curve extrapolated. Broadly, the bioavailability is the share of a dose that reaches the circulation, judged against a reference dose that is usually intravenous. The term Cmax denotes the maximum level reached in the sampled fluid or tissue. The Tmax is the time at which the peak concentration occurs. The term Ki denotes a measure of affinity in units of concentration, obtained from inhibition or displacement. As a reminder, the IC50 is the concentration that gives 50% inhibition. In general, EC50 refers to the concentration at which the effect is half-maximal.

Molecules are shown by their SMILES.

The nature of data set [1]: Stability in rat microsome preparations. It counts as in vitro ADME. The following applies: incubation at 37 °C, rat microsomes; read-out: rat MS, T1/2. From the text:
Table 1 Screening Data for Selected Analogues ^a | column: human and rat MS, T1/2 (min) ^g

A short description of data set [2]: Rat PK (iv and oral). In kind it is in vivo. The following applies: for AUC(0-inf) / bioavailability: Sprague-Dawley; for AUC(0-inf): after oral administration 10 mg/kg (5m 10.5); for bioavailability: po, 10 mg/kg; for unbound Cmax plasma concentration: single oral dose 30 mg/kg, based on 1% free fraction of the measured Cmax.
Data set [3] has as its target DP1 (Homo sapiens, UniProt Q13258). The experiment in a line: Radioligand binding, DP1 ([3H]-PGD2). The following applies: cloned human receptor; mean of two determinations. As for the experimental part: (§1) Additional (non-IP) receptor binding assays were carried out by MDS Pharma (Taiwan) and CEREP (France).
Data set [4] in a line: Dog PK (iv and oral). It counts as in vivo, Beagle dogs.
Data set [5] has as its target CYP 1A2 (Homo sapiens, UniProt P05177). The experiment in a line: Cytochrome P450 inhibition, CYP1A2. In kind it is in vitro ADME.
The target of data set [6] is CYP 3A4 (Homo sapiens, UniProt P08684). The experiment in a line: Cytochrome P450 inhibition, CYP3A4. In kind it is in vitro ADME.
Chain of CYP 3A4 (P08684 whole entry): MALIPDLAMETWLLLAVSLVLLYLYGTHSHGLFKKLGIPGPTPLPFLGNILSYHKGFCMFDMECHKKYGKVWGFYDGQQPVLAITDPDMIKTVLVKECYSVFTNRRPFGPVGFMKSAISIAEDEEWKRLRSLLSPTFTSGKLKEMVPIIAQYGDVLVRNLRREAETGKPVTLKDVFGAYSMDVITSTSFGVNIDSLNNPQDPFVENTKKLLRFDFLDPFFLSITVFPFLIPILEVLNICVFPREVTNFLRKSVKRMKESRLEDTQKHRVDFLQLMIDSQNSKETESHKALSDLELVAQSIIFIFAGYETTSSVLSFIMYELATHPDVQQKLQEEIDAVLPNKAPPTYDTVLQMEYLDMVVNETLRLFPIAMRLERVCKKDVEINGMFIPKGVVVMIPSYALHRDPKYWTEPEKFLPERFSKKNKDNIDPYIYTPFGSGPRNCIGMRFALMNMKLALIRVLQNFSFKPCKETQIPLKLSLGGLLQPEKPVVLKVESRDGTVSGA
For data set [7], the target named is CYP 2C8 (Homo sapiens, UniProt P10632). In words: Cytochrome P450 inhibition, CYP2C8. It counts as in vitro ADME.
Chain of CYP 2C8 (P10632 whole entry): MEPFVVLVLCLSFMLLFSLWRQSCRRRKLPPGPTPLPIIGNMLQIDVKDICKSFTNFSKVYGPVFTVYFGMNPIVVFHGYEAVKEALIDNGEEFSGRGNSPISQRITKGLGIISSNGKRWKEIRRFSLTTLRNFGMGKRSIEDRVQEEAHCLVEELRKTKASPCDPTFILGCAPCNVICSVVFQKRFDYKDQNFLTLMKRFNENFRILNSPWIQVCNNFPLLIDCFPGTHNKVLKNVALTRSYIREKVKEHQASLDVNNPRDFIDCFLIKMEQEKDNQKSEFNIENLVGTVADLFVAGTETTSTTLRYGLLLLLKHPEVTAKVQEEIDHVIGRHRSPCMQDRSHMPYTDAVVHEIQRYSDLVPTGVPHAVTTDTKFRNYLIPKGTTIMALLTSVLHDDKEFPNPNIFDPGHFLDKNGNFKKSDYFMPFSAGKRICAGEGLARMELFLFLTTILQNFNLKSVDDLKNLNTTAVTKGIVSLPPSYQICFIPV
Data set [8] deals with CYP 2C9 (Homo sapiens, UniProt P11712). In words: Cytochrome P450 inhibition, CYP2C9. It counts as in vitro ADME.
Chain of CYP 2C9 (P11712 whole entry): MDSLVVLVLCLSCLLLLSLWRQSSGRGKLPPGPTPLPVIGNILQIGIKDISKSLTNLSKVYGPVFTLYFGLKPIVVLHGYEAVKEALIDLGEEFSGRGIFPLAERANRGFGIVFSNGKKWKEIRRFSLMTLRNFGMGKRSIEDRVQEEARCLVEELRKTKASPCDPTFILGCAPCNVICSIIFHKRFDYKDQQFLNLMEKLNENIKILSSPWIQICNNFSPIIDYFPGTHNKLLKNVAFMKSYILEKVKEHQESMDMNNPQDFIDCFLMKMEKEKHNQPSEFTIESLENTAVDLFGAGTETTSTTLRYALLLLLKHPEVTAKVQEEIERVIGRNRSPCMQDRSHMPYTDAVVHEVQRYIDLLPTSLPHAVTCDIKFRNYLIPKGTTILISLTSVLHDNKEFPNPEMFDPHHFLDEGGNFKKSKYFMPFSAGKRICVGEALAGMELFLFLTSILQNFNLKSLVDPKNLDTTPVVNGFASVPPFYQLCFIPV
Data set [9] deals with primary human pulmonary arterial smooth muscle cells. In words: HTRF cAMP assay in primary human pulmonary arterial smooth muscle cells. In kind it is cell-based. As for the experimental part: Additional In Vitro Assays […]
Compounds were also evaluated in HTRF cAMP assays using primary human pulmonary arterial smooth muscle cells (Cell Applications, Inc., #352Kq05a, or ThermoFisher/Gibco, #C0095C) using the same basic assay protocol outlined in the Experimental section. Cells were cultured as recommended by the suppliers, used at low passage and seeded into 384qwell assay plates at a density of 700q900 cell per well
On the technique in general: Time-resolved FRET reads energy transfer from a long-lived donor to a nearby acceptor.

The target in data set [10] is T1, EP1 (Homo sapiens, UniProt P34995).
T1 sequence (P34995 1-402): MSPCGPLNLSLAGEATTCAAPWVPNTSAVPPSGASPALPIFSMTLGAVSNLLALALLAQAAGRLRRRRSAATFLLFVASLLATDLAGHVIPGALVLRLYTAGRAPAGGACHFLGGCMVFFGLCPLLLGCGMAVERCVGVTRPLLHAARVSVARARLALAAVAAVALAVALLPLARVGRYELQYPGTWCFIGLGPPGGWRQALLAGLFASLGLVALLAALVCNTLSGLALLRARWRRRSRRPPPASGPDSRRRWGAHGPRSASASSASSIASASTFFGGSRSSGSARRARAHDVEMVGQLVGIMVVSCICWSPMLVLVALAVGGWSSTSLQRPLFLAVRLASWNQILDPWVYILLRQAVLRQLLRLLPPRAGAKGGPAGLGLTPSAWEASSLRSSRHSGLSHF
In words: cAMP HTRF agonist assay, EP1. In kind it is cell-based. The source says:
Table Sup2: Data with some comparator compounds in functional assays.
Compound DP1 EP1 EP2 EP3v6 EP4
EC50, µµµµM (% I.A) EC50, µµµµM (% I.A) EC50, µµµµM (% I.A) EC50, µµµµM (% I.A) EC50, µµµµM (% I.A)
n = 3 n = 2 n = 8 n = 6 n = 6 […]

The nature of data set [11]: iv PK in bile-duct cannulated (BDC) versus normal rats. To be noted: iv administration. In kind it is in vivo, rat. From the text: One explanation for the prolonged exposure was the possibility of enterohepatic recirculation. […] A more definitive study was therefore conducted in bile-duct cannulated (BDC) rats.
Data set [12] addresses T1, EP1. In words: Radioligand binding, EP1 ([3H]-PGE2). To be noted: cloned human receptor; mean of two determinations. Set-up: purchased MDS Pharma (Taiwan) and CEREP (France), contract assays. As for the experimental part: as §1
For data set [13], the target named is monkey IP. The experiment in a line: Radioligand binding, monkey IP ([3H]-iloprost). As for the experimental part:
CHO-K1 cells expressing recombinant IP receptors were harvested, washed with ice-cold phosphate buffered saline, pH 7.4 (PBS), and then centrifuged at 48 000g for 20 min at 4 °C. The resulting cell pellet was then resuspended in ice-cold PBS containing 20 mM HEPES, pH 7.4, and 0.1 mM EDTA, homogenized on ice using a Brinkman Polytron, and centrifuged (48 000g for 20 min at 4 °C). This resuspension and centrifugation process was repeated one further time. Crude membrane pellets were stored at −80 °C until used for radioligand binding assays.
Assay incubations were terminated by rapid filtration through PerkinElmer GF/C filtration plates pretreated with 0.3% PEI, under vacuum pressure using a 96-well Packard filtration apparatus, followed by multiple washes with ice-cold wash buffer (PBS containing 20 mM HEPES and 0.1 mM EDTA, pH 7.4). Plates were then dried at 45 °C for a minimum of 2 h. Finally, 25 μL of BetaScint scintillation cocktail was added to each well and plates were counted in a Packard TopCount scintillation counter. In each competition study, test compounds were dosed at 10 concentrations with triplicate determinations at each test concentration.

Data set [14] can be described thus: Metabolite profile of 5c in the rat. In kind it is in vivo. The following applies: in vivo following dosing of 5g. From the text: A taurine-conjugated metabolite was subsequently identified in bile (M1, Figure 4), which was also observed in circulating plasma, although at much lower concentrations (∼5%) compared to parent. Further, two oxidized products, one of which was also a taurine-conjugate, were identified (M2 and M3) in plasma. […] It is known that taurine can be conjugated to bile acids and these conjugates may be hydrolyzed in the gut which allows for bile acid reabsorbtion.[19]

Data set [15] has as its target EP4 (Homo sapiens, UniProt P35408). The experiment in a line: Radioligand binding, EP4 ([3H]-PGE2). To be noted: cloned human receptor; mean of two determinations. More on the design: purchased MDS Pharma (Taiwan) and CEREP (France), contract assays. As for the experimental part: as §1
[16] abbreviates: terminal half-life after iv 2 mg/kg (5m 2.1).
Where [17] appears, read: total clearance, iv 2 mg/kg (5m 2.1).

Chain of CYP 1A2 (P05177 whole entry): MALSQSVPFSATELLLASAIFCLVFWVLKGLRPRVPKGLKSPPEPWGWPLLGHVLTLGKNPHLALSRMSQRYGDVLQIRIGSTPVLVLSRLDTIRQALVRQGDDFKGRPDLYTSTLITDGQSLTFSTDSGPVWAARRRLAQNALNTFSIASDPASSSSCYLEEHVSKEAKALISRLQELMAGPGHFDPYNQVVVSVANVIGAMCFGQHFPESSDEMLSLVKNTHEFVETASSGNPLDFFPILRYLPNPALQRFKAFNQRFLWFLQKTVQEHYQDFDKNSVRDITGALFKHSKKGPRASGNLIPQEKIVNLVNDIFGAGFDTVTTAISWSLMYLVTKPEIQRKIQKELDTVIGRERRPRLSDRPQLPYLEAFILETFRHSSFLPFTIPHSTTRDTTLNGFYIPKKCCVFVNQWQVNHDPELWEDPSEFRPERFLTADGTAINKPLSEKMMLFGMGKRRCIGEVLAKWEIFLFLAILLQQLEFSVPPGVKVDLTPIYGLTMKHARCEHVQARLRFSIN
Chain of DP1 (Q13258 whole entry): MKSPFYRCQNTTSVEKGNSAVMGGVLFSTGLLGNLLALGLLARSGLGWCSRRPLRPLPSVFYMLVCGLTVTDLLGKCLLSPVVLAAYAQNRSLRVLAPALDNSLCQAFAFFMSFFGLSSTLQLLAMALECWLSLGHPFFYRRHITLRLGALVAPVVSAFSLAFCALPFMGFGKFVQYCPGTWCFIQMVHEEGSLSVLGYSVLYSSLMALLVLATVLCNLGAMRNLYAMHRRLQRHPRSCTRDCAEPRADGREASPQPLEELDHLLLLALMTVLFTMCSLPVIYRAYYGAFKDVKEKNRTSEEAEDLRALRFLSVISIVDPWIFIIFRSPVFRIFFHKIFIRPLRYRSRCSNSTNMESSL
Chain of EP4 (P35408 whole entry): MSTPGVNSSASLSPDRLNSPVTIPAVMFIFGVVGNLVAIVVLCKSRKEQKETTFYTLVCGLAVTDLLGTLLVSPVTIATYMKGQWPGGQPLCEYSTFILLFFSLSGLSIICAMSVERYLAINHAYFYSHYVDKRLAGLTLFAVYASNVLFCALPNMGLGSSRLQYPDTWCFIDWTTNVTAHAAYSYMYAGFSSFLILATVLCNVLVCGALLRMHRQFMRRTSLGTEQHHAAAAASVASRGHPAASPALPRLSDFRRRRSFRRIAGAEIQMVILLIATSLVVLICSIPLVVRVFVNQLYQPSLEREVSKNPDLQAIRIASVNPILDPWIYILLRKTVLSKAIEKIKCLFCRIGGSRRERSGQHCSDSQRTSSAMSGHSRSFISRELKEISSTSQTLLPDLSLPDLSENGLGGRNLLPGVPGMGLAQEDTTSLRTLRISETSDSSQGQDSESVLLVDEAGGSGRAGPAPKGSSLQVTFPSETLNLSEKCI

For the compound `O=C(O)COC[C@H]1CC[C@H](COC(=O)N(c2ccccc2)c2ccc(Cl)cc2)CC1` [5c, Sodium 2-(((1r,4r)-4-(((4-Chlorophenyl)(phenyl)carbamoyloxy)methyl)cyclohexyl)methoxy)acetate], the half-life in data set [1] is above 1 h; in [2] (CD-1 (mouse), Sprague-Dawley (rat), plasma, oral, rodents, read-out: elimination half-life in rodents), 5 to 8 h; in [4] (beagle, plasma, oral, 0.2 mg/kg, read-out: elimination half-life in dog (converted)) it was 10 h. In addition, the AUC(0-inf) in data set [2] (plasma) is 14600 ng·h/mL. This compound had a bioavailability in data set [2] (plasma) of 57%. Further, the “AUC0–inf” value turned out to be 5090 ± 1620 ng·h/mL in data set [2] (iv 2 mg/kg (Table 4)), 1050 ± 300 ng·h/mL in data set [4] (iv 0.2 mg/kg), 719 ± 290 ng·h/mL in [4] (po 0.2 mg/kg) and 9750 ± 5270 ng·h/mL in data set [4] (po 2 mg/kg). Moreover, the Clobs stood at 0.427 ± 0.163 L h^–1 kg^–1 in data set [2] (iv 2 mg/kg (Table 4)), 0.43 L h^–1 kg^–1 in data set [2] (setting [17]) and 0.202 ± 0.057 L h^–1 kg^–1 in data set [4] (iv 0.2 mg/kg). Further, the T1/2 in data set [2] (iv 2 mg/kg (Table 4)) was determined as 6.72 ± 0.98 h; in [2] (po 10.0 mg/kg (Table 4)) it was 5.45 ± 1.52 h; in [2] (setting [16]), 6.7 h; in data set [4] (iv 0.2 mg/kg), 3.54 ± 0.42 h; in data set [4] (po 0.2 mg/kg), 9.79 ± 0.94 h; in data set [4] (po 2 mg/kg), 5.53 ± 1.48 h. Also, the “unbound Cmax” value in data set [2] (oral 10 mg/kg, calculated from the PK experiment) is on record as “around 100 nM”. The Cmax stood at 3700 ng/mL in [2] (po 10 mg/kg (5m 10.5)), 3700 ± 1340 ng/mL in data set [2] (po 10.0 mg/kg (Table 4)), 327 ± 16 ng/mL in [4] (po 0.2 mg/kg) and 3440 ± 900 ng/mL in data set [4] (po 2 mg/kg). In addition, the Tmax in [2] (po 10 mg/kg (5m 10.5)) was found to be 1.5 h; in [4] (po 0.2 mg/kg), 0.417 ± 0.144 h; in data set [4] (po 2 mg/kg), 0.833 ± 0.289 h. Also, the F in data set [2] (po 10.0 mg/kg (Table 4)) amounted to 57.4%; in data set [4] (po 0.2 mg/kg), 68.4%; in [4] (po 2 mg/kg), 92.9%. Also, in [2], the “unbound Cmax plasma concentration” value stood at 300 nM. The figures for the Ki in data set [3] and in [12] were 2.6 µM and 9.6 µM, respectively. For the same compound, the IC50 in data set [5], in data set [6], in data set [7] and in data set [8] was above 50 µM throughout. For the same compound, in [9], the “Efficacy (% vs. Iloprost) [95% CI], primary human PASMC cAMP” value is 65 [55, 75] %. Also, the concentration for a half-maximal effect (EC50) in data set [10] was above 10 µM. The “reduction in the apparent plasma half-life in BDC rats” value in [11] (BDC versus normal rats) is 3 fold. For the same compound, the “concentrations in bile and urine compared to plasma” value in data set [11] (rat) is recorded as “negligible”.

As to `O=C(O)COC[C@H]1CC[C@H](COC(=O)N(c2ccccc2)c2cccc(F)c2)CC1` [5g, 2-(((1r,4r)-4-(((3-Fluorophenyl)(phenyl)carbamoyloxy)methyl)cyclohexyl)methoxy)acetic Acid], the half-life in data set [1] is above 1 h. This compound also gave a total exposure AUC(0-inf) in data set [2] (plasma) of 7900 ng·h/mL. The bioavailability in [2] (plasma) is 39%. Further, the Cmax in [2] (po 10 mg/kg (5m 10.5)) turned out to be 3400 ng/mL. The Tmax in data set [2] (po 10 mg/kg (5m 10.5)) is reported as 0.3 h. Also, in data set [2], the “unbound Cmax plasma concentration” value came to 300 nM. For the same compound, the T1/2 in data set [2] (setting [16]) worked out at 3.4 h. In addition, the Clobs in [2] (setting [17]) is on record as 1.2 L h^–1 kg^–1. Besides, the results for the Ki in data set [3], in [13] and in [15] were 1.85 µM, 0.0026 µM and 1.2 µM, respectively. For the same compound, the half-maximal inhibitory concentration (IC50) in data set [5], in [6], in data set [7] and in data set [8] was above 50 µM in each case. Besides, in data set [14], the “taurine conjugate metabolite in vivo” value is given as “no analogous conjugate was observed”.

In data set [13], `CC#CCC(C)[C@H](O)/C=C/[C@@H]1[C@H]2C/C(=C/CCCC(=O)O)C[C@H]2C[C@H]1O` (stereo partly shown) [iloprost] gave a Ki of 0.0016 µM. The “Efficacy (% vs. Iloprost) [95% CI], primary human PASMC cAMP” value in [9] was found to be 100%. For the same compound, the EC50 in data set [9] (Homo sapiens, PASMC, n = 8, read-out: EC50 [95% CI], primary human PASMC cAMP) was found to be 0.0029 µM. Also, in [10], the EC50 amounted to 0.047 µM and the “EP1 % I.A” value was found to be 48%.
